The test system of series [1] is isolated rabbit heart. Kind of series: Isolated rabbit heart preparation (Langendorff). It counts as cell-based. The note with it: mean for myocardial contractile force, heart rate, coronary flow; relative to theophylline. The protocol: 2. Isolated Rabbit Heart Preparation
In-vitro cardiodynamic activity of each compound except dyphylline was determined on the spontaneously beating isolated rabbit heart by the Langendorff method as modified by Anderson and Craver (J. Pharmacol. Exp. Ther., 93:135, 1948). After securing the extracted heart's ascending aorta to the apparatus, the coronaries were continuously perfused with aerated Chenoweth's solution (Chenoweth and Koelle, J. Lab. Clin. 31:600, 1946) maintained at a constant pressure-head and temperature of 38° C. The effects of logarithmically increasing doses of each compound were determined on contractile force, heart rate, and coronary flow. Drugs were dissolved in minimal volumes of Chenoweth's solution and injected into the downspout containing perfusate at 5-10 minute intervals.

The test system of series [2] is guinea pig tracheal strip. Kind of series: Isolated trachea preparation (in vitro tracheal strip), pilocarpine-contracted. The format is cell-based. The settings on record: relative to theophylline = 1.00, molar basis. The method, then:
With the exception of theophylline, all compounds were administered as the free base dissolved or suspended in appropriate aqueous vehicles. […] The ethylenediamine portion of the molecule is pharmacologically inert, but renders solubility and convenience of use (Simons et al., S. Med. Journ. 68:802, 1975). For the purpose of comparison, aminophylline was considered to contain 80% free theophylline by weight (Piafsky and Ogilvie, New England J. Med. 292: 1218, 1975). Final comparisons were always based on the calculated dose of theophylline. Because of obvious differences in molecular weights, all compounds were compared on a molar basis rather than on absolute weight.
1. Isolated Trachea Preparation
The in vitro bronchodilator activity of each compound was estimated on the spirally cut guinea pig tracheal strip preparation as described by Constantine, (J. Pharm. Pharmacol. 17:384, 1965). Large Camm English Short Hair male guinea pigs (800-1200 gm.) were employed in order to obtain three spiral tracheal strips from one animal. Strips were suspended in 50 ml. tissue baths containing modified Krebs-Henseleit solution at 38° C. and aerated with 95% O2 /5% CO2. Pilocarpine HCl, 1 mg/liter, was added to the solution to maintain a sustained contraction and to promote rapid recovery of the muscle. A Grass FT 0.03 force displacement transducer was used to electronically record muscle response. Concentration-relaxation relationships were obtained for each compound by logarithmically increasing bath concentration until maximum (100%) relaxation was observed. Tissues were washed between doses and allowed 30 minutes to recover. Linear regression analysis of percent response vs. log of bath concentration allowed calculation of a slope and EC50 value (concentration producing 50% of maximum relaxation) for each compound. Each dose of each compound was tested a minimum of six times.

Series [3] deals with histamine-induced bronchospasm. Description: Protection against histamine aerosol in guinea pigs (in vivo bronchodilator). Also on record: species or system guinea pig. The settings on record: relative to theophylline, molar basis; for Bronchodilator activity, In-Vivo I.P. (G. Pig), relative molar activity: 15-20 min after injection; for Bronchodilator activity, In-Vivo, Oral (G. Pig), relative molar activity: 35-40 min after gavage. The protocol: With the exception of theophylline, all compounds were administered as the free base dissolved or suspended in appropriate aqueous vehicles. […] Final comparisons were always based on the calculated dose of theophylline. Because of obvious differences in molecular weights, all compounds were compared on a molar basis rather than on absolute weight.
2. Protection Against Histamine Aerosol
Adult Camm English Short Hair male albino guinea pigs (270-600 gm.) were singularly confined in an inverted glass aquarium and continuously exposed to a finely atomized mist of 0.5% histamine diphosphate produced by a Devilbiss No. 40 nebulizer and compressed air at 300 mm. Hg. pressure. The period from the start of aerosolization until the appearance of ultimate collapse or convulsions is defined as the preconvulsive time and is relatively constant in the same animal. Preconvulsive times were determined for each dose of each compound in at least six guinea pigs. Control preconvulsive times were obtained three days prior to and three days following drug administration. Percent protection afforded by each compound was calculated by the formula:
% Protection = (1- C/T) × 100
where C is the average control preconvulsive time and T is the test preconvulsive time after compound administration, both in seconds.
(§1) The PD50 of each experimental compound was determined after both intraperitoneal and oral administration. A minimum of 3 dose levels and 6 animals per dose were employed to obtain meaningful dose-response data. Protection was assessed 15-20 minutes after intraperitoneal injection and 35-40 minutes after oral gavage with a flexible plastic tube. Animals were fasted overnight prior to oral dosing. All compounds were administered in aqueous solution in concentrations commensurate to a proper volume dose. Guinea pigs were utilized between 1 and 3 times but no animal received the same compound twice in succession with a minimum of 3 days rest between doses.

Series [4] can be described thus: Oral LD50 / oral PD50 ratio in guinea pigs. The note with it: guinea pig, in vivo, median lethal dose / median protective dose, relative to theophylline, read-out: Oral LD50 / Oral PD50 (G. Pig), relative. The method, then:
where C is the average control preconvulsive time and T is the test preconvulsive time after compound administration, both in seconds. Animals with control preconvulsive times greater than 2 minutes were not used and if test preconvulsive time was longer than 10 minutes, 100% protection was arbitrarily assumed. The dose of each compound causing 50% protection (PD50) was calculated by the method of Litchfield and Wilcoxon (J. Pharmacol. Exp. Ther. 96:99, 1949).
as §1
2. Oral LD50 in Guinea Pigs
The acute median lethal dose of each compound after oral administration was also determined in guinea pigs. Camm English Short Hair albino guinea pigs with sexes equally represented and ranging in weight from 255 to 311 gm. were used. A minimum of six animals per dose level were employed. Oral dosing was accomplished with a flexible tube inserted into the stomach. All guinea pigs were fasted overnight. […] The other compounds were dissolved in distilled water. Following administration of the appropriate doses, acute responses and lethalities were observed and LD50 values were calculated by the method of Litchfield and Wilcoxon (J. Pharmacol. Exp. Ther. 96:99, 1949).

The conditions of series [5]: U.S. Pat. No. 2,756,229, in comparison with theophylline; cited from earlier work.
The conditions of series [6]: prior art statement; listed as dyphylline; cited from earlier work.
The conditions of series [7]: prior art statement; cited from earlier work.

Results on four compounds are retold here after US4031218A, “7-(2,3-Dihydroxypropyl-1,3-di-n-propylxanthine and a pharmaceutical composition containing same useful as a bronchial muscle relaxant” (Mallinckrodt, Inc., priority 1976, dated 1977).

“Also recorded” adds a separate entry of the source.

For `CCCn1c(=O)c2c(ncn2CC(O)CO)n(CCC)c1=O` (centres unmarked) [Compound V, 7-(2,3-dihydroxypropyl)-1,3-di-n-propylxanthine], in series [1], the “In-Vitro; MCF, HR, CF (Rabbit Heart), mean relative molar activity” value (from here on “In-Vitro; MCF … mean relative molar activity”) worked out at 0.93. Also, the “Bronchodilator activity, In-Vitro (Tracheal Strip), relative molar activity” value in series [2] is 0.99. Moreover, in series [3], the “Bronchodilator activity, In-Vivo I.P. (G. Pig), relative molar activity” value amounted to 1.56 and the “Bronchodilator activity, In-Vivo, Oral (G. Pig), relative molar activity” value stood at 0.75. Moreover, the selectivity ratio in series [4] was determined as 3.75.
Consider `CCCn1c(=O)c2c(ncn2CCCO)n(CCC)c1=O` [IV, 7-(3-hydroxypropyl)-1,3-di-n-propylxanthine], for which the “In-Vitro; MCF … mean relative molar activity” value in series [1] was 1.81. In series [2], the “Bronchodilator activity, In-Vitro (Tracheal Strip), relative molar activity” value is on record as 2.05. Moreover, in series [3], the “Bronchodilator activity, In-Vivo I.P. (G. Pig), relative molar activity” value was 0.94 and the “Bronchodilator activity, In-Vivo, Oral (G. Pig), relative molar activity” value is listed as 0.92. Also, the selectivity ratio in series [4] came to 3.57. Besides, the “Diuretic activity in words (prior art)” value in series [5] is recorded as “strong diuretics”.
As for `CCCn1c(=O)c2c(ncn2CC(C)O)n(CCC)c1=O` (centres unmarked) [III, 7-(2-hydroxypropyl) 1,3-di-n-propylxanthine], in series [1], the “In-Vitro; MCF … mean relative molar activity” value is listed as 1.40. Besides, the “Bronchodilator activity, In-Vitro (Tracheal Strip), relative molar activity” value in series [2] is recorded as 1.86. Besides, in series [3], the “Bronchodilator activity, In-Vivo I.P. (G. Pig), relative molar activity” value turned out to be 3.26 and the “Bronchodilator activity, In-Vivo, Oral (G. Pig), relative molar activity” value stood at 3.30. In addition, in series [4], the selectivity ratio is 5.43. Also, in series [5], the “Diuretic activity in words (prior art)” value is “strong diuretics”.
With `Cn1c(=O)c2c(ncn2CC(O)CO)n(C)c1=O` (centres unmarked) [Compound II, 7-(2,3-dihydroxypropyl) 1,3-dimethylxanthine], in series [6], the “Bronchodilator activity / potency in words (prior art)” value was “less bronchodilator potency than theophylline; also recorded: markedly decreases overall potency”. The “Bronchodilator activity, In-Vitro (Tracheal Strip), relative molar activity” value in series [2] turned out to be 0.16. Further, in series [3], the “Bronchodilator activity, In-Vivo I.P. (G. Pig), relative molar activity” value came out at 0.12 and the “Bronchodilator activity, In-Vivo, Oral (G. Pig), relative molar activity” value stood at 0.13. The “Water solubility in words (prior art)” value in series [7] was “high water solubility”. Further, in series [4], the selectivity ratio was determined as 2.
